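Test compounds were applied to cells in 96-well plates for 48 hours at 5 doses. The concentration for full growth arrest is given as TGI.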

The results in this text go back to PubChem BioAssay (NCI).

Test systems include CAKI-1 renal; COLO 205 colon; HCT-15 colon; HOP-92 NSCLC; K-562 leukemia; M14 melanoma; MDA-N; SNB-19 CNS; SNB-75 CNS.
What all share (experiment): NCI tumour cell line growth inhibition, 48 h

Take `Cc1c2cccc-2c2cc(O)c3ccccc3c2n1-c1ccc(N(C)C)cc1`: the TGI in the experiment with CAKI-1 renal stood at 31.7 µM; in the experiment on COLO 205 colon it was 32.6 µM; in the experiment with HCT-15 colon, 20 µM; in the experiment on HOP-92 NSCLC, 8 µM; in the experiment with K-562 leukemia, 26.8 µM; with M14 melanoma it was 27.9 µM. Besides, the TGI with MDA-N is 36.9 µM; in the experiment with SNB-19 CNS, 30 µM; in the experiment with SNB-75 CNS, 17.5 µM.
For `COC(=O)c1ccccc1C1CN=NC12Cc1c(ccc(C)c1C)C2=O` (configuration not stated), the TGI in the experiment with CAKI-1 renal is above 100 µM; in the experiment with COLO 205 colon it was above 100 µM; in the experiment on HCT-15 colon it was above 100 µM; with HOP-92 NSCLC it was 84.2 µM; with K-562 leukemia, above 100 µM; in the experiment on M14 melanoma it was above 100 µM. Further, the TGI is above 100 µM in the experiment with MDA-N, above 100 µM in the experiment with SNB-19 CNS and 89.1 µM with SNB-75 CNS.
`CC(C)Oc1cccc(N2C(n3ccnc3)=Nc3ccncc3S2(=O)=O)c1`: the TGI was 28.3 µM in the experiment on CAKI-1 renal; 24.7 µM in the experiment with COLO 205 colon; 32.7 µM in the experiment with HCT-15 colon; 25.7 µM in the experiment on HOP-92 NSCLC; 36.6 µM in the experiment with K-562 leukemia; 28.2 µM in the experiment on M14 melanoma. Moreover, the TGI in the experiment on MDA-N was found to be 25.4 µM; with SNB-19 CNS, 36 µM; in the experiment with SNB-75 CNS it was 33.3 µM.
`OCc1cn(Cc2ccccc2)c2ccccc12`: the TGI in the experiment with CAKI-1 renal is 1.64 µM; with COLO 205 colon it was 13.6 µM; in the experiment with HCT-15 colon, 31.4 µM; in the experiment on HOP-92 NSCLC, 22.9 µM; with K-562 leukemia it was above 100 µM; with M14 melanoma, above 54.3 µM. For the same compound, the TGI was above 65.5 µM with MDA-N, above 100 µM in the experiment with SNB-19 CNS and 5.64 µM with SNB-75 CNS.
Regarding `CN(CCN1CCCC1)C1CCc2cc(Cl)c(Cl)cc2C1` (configuration not stated), the TGI with CAKI-1 renal was 33.6 µM; with COLO 205 colon it was 17.2 µM; in the experiment on HCT-15 colon, 26.5 µM; in the experiment on K-562 leukemia it was above 100 µM; in the experiment with M14 melanoma, 31.5 µM; with MDA-N, 26.2 µM. Also, the TGI in the experiment on SNB-19 CNS stood at 38.7 µM.
In the case of `CC(=O)Nc1nc(Cl)cc(NCC2(CO)CCC2)n1`, the TGI in the experiment on CAKI-1 renal, in the experiment with COLO 205 colon, in the experiment on HCT-15 colon, in the experiment on HOP-92 NSCLC, with K-562 leukemia and with M14 melanoma was above 100 µM throughout. Besides, the TGI in the experiment on MDA-N, in the experiment with SNB-19 CNS and in the experiment with SNB-75 CNS was above 100 µM throughout.
`Cc1c(C)n(-c2ccccc2)c2nc(S(C)=O)nc(S(C)=O)c12` (configuration not stated): the TGI with CAKI-1 renal stood at 2.66 µM; in the experiment with COLO 205 colon, 3.41 µM; in the experiment on HCT-15 colon, 17.8 µM; in the experiment with HOP-92 NSCLC it was 4.62 µM; with K-562 leukemia, 4.28 µM; in the experiment on M14 melanoma, 6.45 µM. In addition, the TGI in the experiment on MDA-N worked out at 13.6 µM; with SNB-19 CNS it was 31.3 µM; in the experiment with SNB-75 CNS, 23.3 µM.
For `Cc1ccc2cccc(-c3cccc4ccccc34)c2n1`, the TGI with CAKI-1 renal was above 100 µM; with COLO 205 colon it was above 100 µM; with HCT-15 colon, 91.1 µM; with HOP-92 NSCLC it was 62.1 µM; with K-562 leukemia it was 21 µM; with M14 melanoma, 55.6 µM. Moreover, the TGI with MDA-N was 22.7 µM; with SNB-19 CNS, above 100 µM; in the experiment on SNB-75 CNS, 48.2 µM.
As to `COc1cccc(C2c3cc4c(cc3OC(O)C2C)OCO4)c1OC` (configuration not stated), the TGI in the experiment with CAKI-1 renal was 13.9 µM; in the experiment on COLO 205 colon, 19.7 µM; in the experiment on HCT-15 colon, above 100 µM; in the experiment with HOP-92 NSCLC it was 8.55 µM; in the experiment on K-562 leukemia, 15.5 µM; in the experiment on M14 melanoma, 50.9 µM. For the same compound, the results for the TGI with MDA-N, in the experiment with SNB-19 CNS and with SNB-75 CNS were 58.3 µM, 74.2 µM and 32.4 µM, respectively.
Turning to `O=CC(I)=C(c1ccccc1)c1ccccc1`, the TGI with CAKI-1 renal was 30.4 µM; in the experiment with COLO 205 colon, 32.4 µM; in the experiment on HCT-15 colon it was 28.4 µM; with HOP-92 NSCLC it was 38.1 µM; with K-562 leukemia, above 71 µM; with M14 melanoma it was 35.2 µM. Also, the values for the TGI in the experiment with MDA-N, in the experiment on SNB-19 CNS and in the experiment with SNB-75 CNS were 35.4 µM, 30.1 µM and above 52.7 µM, respectively.
In the case of `C[C@@H]1CC[C@@]2(C)C(C(=O)O)=CCCC2[C@@]1(C)CC(=O)c1ccoc1` (some centres not stated), the TGI in the experiment with CAKI-1 renal, with COLO 205 colon, in the experiment with HCT-15 colon, in the experiment on HOP-92 NSCLC, with M14 melanoma and with MDA-N was above 25 µM throughout. The TGI in the experiment on SNB-19 CNS and with SNB-75 CNS was above 25 µM each time.
For `CC1CC(N2CCOCC2)=Nc2ccccc2N1C` (configuration not stated), the TGI in the experiment on CAKI-1 renal, with COLO 205 colon, in the experiment on HCT-15 colon, in the experiment with K-562 leukemia, in the experiment on M14 melanoma and in the experiment on MDA-N was above 100 µM each time. The TGI is above 100 µM with SNB-19 CNS and 89.7 µM in the experiment on SNB-75 CNS.
As to `O=C(/C=C/c1ccc(O)c(O)c1)OCCc1ccc2ccccc2c1`, the TGI with COLO 205 colon is 16.4 µM; in the experiment with HCT-15 colon, 10.2 µM; in the experiment with HOP-92 NSCLC, 19.6 µM; in the experiment on M14 melanoma, 16.9 µM; in the experiment on MDA-N, 5.45 µM; with SNB-19 CNS, 25.9 µM. This compound also displayed a TGI with SNB-75 CNS of 8.22 µM.
Turning to `O=C1C=CC2(O[C@H](c3ccccc3)[C@@H](c3ccccc3)O2)[C@H](Sc2ccccc2O)C1`, the TGI with CAKI-1 renal was 0.886 µM; in the experiment with COLO 205 colon, 1.62 µM; in the experiment with HCT-15 colon it was 0.507 µM; in the experiment on HOP-92 NSCLC, 1.32 µM; with K-562 leukemia, 78.2 µM; in the experiment on M14 melanoma, 0.609 µM. The TGI in the experiment on MDA-N was 1.13 µM; in the experiment with SNB-19 CNS, 3.74 µM; with SNB-75 CNS, 8.16 µM.
As for `O=C(c1ccco1)N(C(=O)N1CCCCC1)c1ccccc1`, the TGI in the experiment with CAKI-1 renal, with COLO 205 colon, in the experiment with HCT-15 colon, in the experiment on K-562 leukemia, in the experiment with M14 melanoma and in the experiment with MDA-N was above 100 µM throughout. The compound further showed a TGI in the experiment on SNB-19 CNS above 100 µM.
